Source: patent publication US20210267984A1, “APPLICATION OF ALLOPURINOL IN PREPARATION OF DRUG FOR TREATING CANCER WITH HIGH EXPRESSION OF PAICS GENE” (priority 2018, published 2021)

How the values were obtained:
[1] = system: cancers with non-abnormally high expression of the PAICS gene; experiment: Therapeutic effect, cancers with non-abnormally high PAICS expression; settings: cancers with non-abnormally high PAICS expression such as renal cancer, skin cutaneous melanoma, pheochromocytoma and paraganglioma
Description: (§1) This property of allopurinol is different from those of most chemotherapeutic drugs.

Bel-7402 = settings: data of CN102746306A; cited from earlier work
[2] = system: cancer with abnormally high expression of the PAICS gene; experiment: Anti-cancer and therapeutic effect, cancers with abnormally high PAICS expression
Description: as §1

Lung adenocarcinoma = experiment: Anti-cancer effect of allopurinol (cell biology screening combined with animal experiments); settings: LUAD; PAICS abnormally high expression
Description: as §1

Colon adenocarcinoma = experiment: as above; settings: COAD; PAICS abnormally high expression
Description: as §1

[3] = system: Lung squamous cell carcinoma; experiment: as above; settings: LUSC; PAICS abnormally high expression
Description: as §1

Rectum adenocarcinoma = experiment: as above; settings: READ; PAICS abnormally high expression
Description: as §1

[4] = system: Head and Neck squamous cell carcinoma; experiment: as above; settings: HNSC; PAICS abnormally high expression
Description: as §1

Stomach adenocarcinoma = experiment: as above; settings: STAD; PAICS abnormally high expression
Description: as §1

[5] = system: Pancreatic adenocarcinoma; experiment: as above; settings: PAAD; PAICS abnormally high expression
Description: as §1

Glioblastoma multiforme = experiment: as above; settings: GBM; PAICS abnormally high expression
Description: as §1

[6] = system: Liver hepatocellular carcinoma; experiment: as above; settings: LIHC; PAICS abnormally high expression
Description: as §1

[7] = system: Cervical squamous cell carcinoma and endocervical adenocarcinoma; experiment: as above; settings: CESC; PAICS abnormally high expression
Description: as §1

[8] = system: Breast invasive carcinoma; experiment: as above; settings: BRCA; PAICS abnormally high expression
Description: as §1

Esophageal carcinoma = experiment: as above; settings: ESCA; PAICS abnormally high expression
Description: as §1

[9] = system: Bladder Urothelial Carcinoma; experiment: as above; settings: BLCA; PAICS abnormally high expression
Description: as §1

[10] = system: Uterine Corpus Endometrial Carcinoma; experiment: as above; settings: UCEC; PAICS abnormally high expression
Description: as §1

Prostate adenocarcinoma = experiment: as above; settings: PRAD; PAICS abnormally high expression
Description: as §1

Cholangiocarcinoma = experiment: as above; settings: CHOL; PAICS abnormally high expression
Description: as §1

SMMC-7221 = settings: data of CN102746306A; cited from earlier work

Compound: Oc1ncnc2[nH]ncc12 [allopurinol, Allopurinol]
- therapeutic effect [1]: no significant therapeutic effect
- anti-tumor activity (Bel-7402): no anti-tumor activity
- anti-cancer and therapeutic effects [2]: significant anti-cancer and therapeutic effects
- Anti-cancer effect of allopurinol (Lung adenocarcinoma): Significant
- Anti-cancer effect of allopurinol (Colon adenocarcinoma): Significant
- Anti-cancer effect of allopurinol [3]: Significant
- Anti-cancer effect of allopurinol (Rectum adenocarcinoma): Significant
- Anti-cancer effect of allopurinol [4]: Significant
- Anti-cancer effect of allopurinol (Stomach adenocarcinoma): Significant
- Anti-cancer effect of allopurinol [5]: Significant
- Anti-cancer effect of allopurinol (Glioblastoma multiforme): Significant
- Anti-cancer effect of allopurinol [6]: Significant
- Anti-cancer effect of allopurinol [7]: Significant
- Anti-cancer effect of allopurinol [8]: Significant
- Anti-cancer effect of allopurinol (Esophageal carcinoma): Significant
- Anti-cancer effect of allopurinol [9]: Significant
- Anti-cancer effect of allopurinol [10]: Significant
- Anti-cancer effect of allopurinol (Prostate adenocarcinoma): Significant
- Anti-cancer effect of allopurinol (Cholangiocarcinoma): Significant
- anti-tumor activity (SMMC-7221): no anti-tumor activity
